# Experiments:
# [1] = biological target: T1, Serine/threonine-protein kinase TAO3 (Homo sapiens) (UniProt Q9H2K8); settings: at 10 µM
# T1 sequence (whole entry): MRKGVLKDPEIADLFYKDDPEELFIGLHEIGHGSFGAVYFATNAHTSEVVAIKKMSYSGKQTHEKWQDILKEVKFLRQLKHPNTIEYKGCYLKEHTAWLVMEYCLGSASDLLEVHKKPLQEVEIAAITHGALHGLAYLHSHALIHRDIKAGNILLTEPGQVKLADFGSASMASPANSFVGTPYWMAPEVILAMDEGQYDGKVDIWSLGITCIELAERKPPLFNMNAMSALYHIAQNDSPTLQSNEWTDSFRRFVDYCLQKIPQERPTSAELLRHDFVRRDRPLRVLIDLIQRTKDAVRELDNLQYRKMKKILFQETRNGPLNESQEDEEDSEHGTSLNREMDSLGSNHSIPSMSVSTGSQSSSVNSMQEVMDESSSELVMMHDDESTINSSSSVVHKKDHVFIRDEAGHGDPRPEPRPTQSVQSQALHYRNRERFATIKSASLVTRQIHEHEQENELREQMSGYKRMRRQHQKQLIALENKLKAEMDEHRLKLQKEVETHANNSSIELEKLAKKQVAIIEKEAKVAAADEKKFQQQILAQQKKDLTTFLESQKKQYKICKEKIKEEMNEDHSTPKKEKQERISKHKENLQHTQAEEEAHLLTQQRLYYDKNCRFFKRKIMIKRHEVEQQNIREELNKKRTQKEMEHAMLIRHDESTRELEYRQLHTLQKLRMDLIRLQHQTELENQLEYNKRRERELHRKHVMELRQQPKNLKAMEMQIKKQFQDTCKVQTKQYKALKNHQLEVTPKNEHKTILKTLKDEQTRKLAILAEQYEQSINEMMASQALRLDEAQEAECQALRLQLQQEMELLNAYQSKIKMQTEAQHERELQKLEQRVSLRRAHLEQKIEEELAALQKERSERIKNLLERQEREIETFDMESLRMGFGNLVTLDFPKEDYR
# [2] = biological target: T2, MAP/microtubule affinity-regulating kinase 4 (Homo sapiens) (UniProt Q96L34); settings: at 10 µM
# T2 sequence (whole entry): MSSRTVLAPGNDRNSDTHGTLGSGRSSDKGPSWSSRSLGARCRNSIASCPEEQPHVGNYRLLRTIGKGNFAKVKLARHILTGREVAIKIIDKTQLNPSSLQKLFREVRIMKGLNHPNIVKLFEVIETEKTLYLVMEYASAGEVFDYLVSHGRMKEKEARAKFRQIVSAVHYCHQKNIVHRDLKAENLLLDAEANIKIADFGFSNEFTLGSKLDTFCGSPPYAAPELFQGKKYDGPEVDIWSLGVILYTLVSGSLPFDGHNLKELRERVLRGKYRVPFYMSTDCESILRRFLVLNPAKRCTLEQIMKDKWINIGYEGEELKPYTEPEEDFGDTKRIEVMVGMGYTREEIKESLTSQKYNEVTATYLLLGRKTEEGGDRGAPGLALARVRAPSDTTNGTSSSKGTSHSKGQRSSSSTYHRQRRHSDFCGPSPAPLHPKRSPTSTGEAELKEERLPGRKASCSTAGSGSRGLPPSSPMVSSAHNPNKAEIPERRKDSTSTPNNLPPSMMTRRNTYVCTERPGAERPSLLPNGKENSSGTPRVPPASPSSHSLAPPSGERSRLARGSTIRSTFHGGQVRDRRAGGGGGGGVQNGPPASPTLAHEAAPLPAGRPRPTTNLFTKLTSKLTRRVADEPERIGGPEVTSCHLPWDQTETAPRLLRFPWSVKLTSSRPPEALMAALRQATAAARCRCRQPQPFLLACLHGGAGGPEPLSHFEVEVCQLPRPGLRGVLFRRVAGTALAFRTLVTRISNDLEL
# [3] = biological target: LIM domain kinase 2 (Homo sapiens) (UniProt P53671); assay: Selectivity interaction (KinomeScan (DiscoverX)) EUB0001079a LIMK2; settings: at 1 µM
# [4] = biological target: Serine/threonine-protein kinase 16 (Homo sapiens, UniProt O75716); assay: Selectivity interaction (ProQinase) EUB0000171b STK16
# Chain of Serine/threonine-protein kinase 16 (O75716 whole entry): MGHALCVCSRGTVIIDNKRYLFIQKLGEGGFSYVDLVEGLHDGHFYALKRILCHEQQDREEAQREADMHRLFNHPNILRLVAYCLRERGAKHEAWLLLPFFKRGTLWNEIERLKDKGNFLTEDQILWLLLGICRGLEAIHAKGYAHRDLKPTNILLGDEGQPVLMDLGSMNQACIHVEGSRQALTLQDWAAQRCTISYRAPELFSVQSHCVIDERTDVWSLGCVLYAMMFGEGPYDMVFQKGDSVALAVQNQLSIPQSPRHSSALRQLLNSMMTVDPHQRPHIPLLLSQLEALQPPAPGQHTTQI
# [5] = test system: Epidermal growth factor receptor (Homo sapiens), P00533 [UNDEFINED MUTATION]; assay: Selectivity interaction (KinomeScan (DiscoverX)) EUB0000092b EGFR; settings: at 10 µM
# [6] = biological target: Cyclin-dependent kinase 14 (Homo sapiens) (UniProt O94921); assay: Selectivity interaction (KinomeScan (DiscoverX)) EUB0000045b CDK14
# Chain of Cyclin-dependent kinase 14 (Homo sapiens) (O94921 whole entry, canonical isoform): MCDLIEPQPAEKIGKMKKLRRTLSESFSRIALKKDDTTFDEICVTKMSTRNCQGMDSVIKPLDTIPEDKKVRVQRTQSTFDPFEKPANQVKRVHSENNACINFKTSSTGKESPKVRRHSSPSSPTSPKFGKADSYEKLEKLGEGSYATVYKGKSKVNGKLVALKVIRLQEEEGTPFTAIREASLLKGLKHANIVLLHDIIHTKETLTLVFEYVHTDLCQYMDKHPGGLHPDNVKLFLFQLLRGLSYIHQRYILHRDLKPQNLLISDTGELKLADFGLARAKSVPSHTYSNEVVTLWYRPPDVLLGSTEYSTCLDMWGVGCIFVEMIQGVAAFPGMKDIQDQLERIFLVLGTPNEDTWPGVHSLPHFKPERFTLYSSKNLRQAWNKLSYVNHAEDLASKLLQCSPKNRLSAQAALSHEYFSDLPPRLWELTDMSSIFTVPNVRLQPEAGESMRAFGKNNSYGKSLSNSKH
# [7] = test system: Phosphatidylinositol 4,5-bisphosphate 3-kinase catalytic subunit alpha isoform (Homo sapiens), P42336 [E542K]; assay: (§1) Selectivity interaction (KinomeScan (DiscoverX)) EUB0000655a PIK3CA; settings: at 10 µM
# [8] = test system: Phosphatidylinositol 4,5-bisphosphate 3-kinase catalytic subunit alpha isoform (Homo sapiens), P42336 [H1047L]; assay: as §1; settings: at 10 µM
# [9] = test system: Phosphatidylinositol 4,5-bisphosphate 3-kinase catalytic subunit alpha isoform (Homo sapiens), P42336 [E545K]; assay: as §1; settings: at 10 µM
# [10] = test system: Phosphatidylinositol 4,5-bisphosphate 3-kinase catalytic subunit alpha isoform (Homo sapiens), P42336 [E545A]; assay: as §1; settings: at 10 µM
# Chain of Phosphatidylinositol 4,5-bisphosphate 3-kinase catalytic subunit alpha isoform (Homo sapiens), P42336 [E545A] (P42336 whole entry E545A, canonical isoform): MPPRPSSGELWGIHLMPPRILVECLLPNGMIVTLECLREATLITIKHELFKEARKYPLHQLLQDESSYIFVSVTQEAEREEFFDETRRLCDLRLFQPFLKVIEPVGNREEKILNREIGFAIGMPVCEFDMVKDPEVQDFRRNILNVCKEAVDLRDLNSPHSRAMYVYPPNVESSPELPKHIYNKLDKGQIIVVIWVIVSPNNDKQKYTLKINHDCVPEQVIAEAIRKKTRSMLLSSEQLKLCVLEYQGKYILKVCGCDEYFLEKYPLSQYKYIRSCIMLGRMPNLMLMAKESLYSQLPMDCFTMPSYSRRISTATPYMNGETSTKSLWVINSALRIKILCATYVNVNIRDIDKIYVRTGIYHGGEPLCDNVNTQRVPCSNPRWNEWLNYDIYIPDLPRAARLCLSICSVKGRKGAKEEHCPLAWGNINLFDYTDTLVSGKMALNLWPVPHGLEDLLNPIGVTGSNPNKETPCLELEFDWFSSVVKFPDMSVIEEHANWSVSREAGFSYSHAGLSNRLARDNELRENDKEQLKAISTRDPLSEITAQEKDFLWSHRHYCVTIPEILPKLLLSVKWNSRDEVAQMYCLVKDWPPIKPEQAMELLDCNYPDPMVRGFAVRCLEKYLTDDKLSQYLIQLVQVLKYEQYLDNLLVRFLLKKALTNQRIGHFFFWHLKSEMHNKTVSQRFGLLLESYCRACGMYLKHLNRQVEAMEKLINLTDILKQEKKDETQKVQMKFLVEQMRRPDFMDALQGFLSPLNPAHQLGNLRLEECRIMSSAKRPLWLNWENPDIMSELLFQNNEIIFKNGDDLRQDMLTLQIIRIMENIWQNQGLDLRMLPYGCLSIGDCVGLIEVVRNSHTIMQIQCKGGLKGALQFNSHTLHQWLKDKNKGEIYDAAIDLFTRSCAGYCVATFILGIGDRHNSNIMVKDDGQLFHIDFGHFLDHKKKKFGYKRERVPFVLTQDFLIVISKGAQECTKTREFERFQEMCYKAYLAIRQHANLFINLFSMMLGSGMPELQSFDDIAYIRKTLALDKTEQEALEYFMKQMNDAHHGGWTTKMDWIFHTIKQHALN
# [11] = test system: Phosphatidylinositol 4,5-bisphosphate 3-kinase catalytic subunit alpha isoform (Homo sapiens), P42336 [H1047Y]; assay: as §1; settings: at 10 µM
# Chain of Phosphatidylinositol 4,5-bisphosphate 3-kinase catalytic subunit alpha isoform (Homo sapiens), P42336 [H1047Y] (P42336 whole entry H1047Y, canonical isoform): as the sequence (P42336 whole entry E545A, canonical isoform) above, with A545E, H1047Y counted along it
# [12] = test system: Phosphatidylinositol 4,5-bisphosphate 3-kinase catalytic subunit alpha isoform (Homo sapiens), P42336 [C420R]; assay: as §1; settings: at 10 µM
# [13] = test system: Phosphatidylinositol 4,5-bisphosphate 3-kinase catalytic subunit alpha isoform (Homo sapiens), P42336 [I800L]; assay: as §1; settings: at 10 µM
# Chain of Phosphatidylinositol 4,5-bisphosphate 3-kinase catalytic subunit alpha isoform (Homo sapiens), P42336 [I800L] (P42336 whole entry I800L, canonical isoform): as the sequence (P42336 whole entry E545A, canonical isoform) above, with A545E, I800L counted along it
# [14] = biological target: Phosphatidylinositol 4,5-bisphosphate 3-kinase catalytic subunit alpha isoform (Homo sapiens) (UniProt P42336); assay: as §1; settings: at 10 µM
# [15] = test system: Phosphatidylinositol 4,5-bisphosphate 3-kinase catalytic subunit alpha isoform (Homo sapiens), P42336 [Q546K]; assay: as §1; settings: at 10 µM
# Chain of Phosphatidylinositol 4,5-bisphosphate 3-kinase catalytic subunit alpha isoform (Homo sapiens), P42336 [Q546K] (P42336 whole entry Q546K, canonical isoform): as the sequence (P42336 whole entry E545A, canonical isoform) above, with A545E, Q546K counted along it
# [16] = test system: Phosphatidylinositol 4,5-bisphosphate 3-kinase catalytic subunit alpha isoform (Homo sapiens), P42336 [M1043I]; assay: as §1; settings: at 10 µM
# [17] = biological target: Serine/threonine-protein kinase B-raf (Homo sapiens) (UniProt P15056); assay: Selectivity interaction (Kinase panel (KiNativ target engagement assay in Jurkat cells)) EUB0001635a BRAF; assay type: cell-based; settings: Selectivity number of off-targets 0.0, Selectivity number of targets 233.0, Source Knowledge https://www.sciencedirect.com/science/article/pii/S2451945619300674?via%3Dihub, at 1 µM
structure (smiles),measurement,setting,value
Cc1cc([C@@H](C)Nc2ccccc2C(=O)O)c2nc(N3CCOCC3)cc(=O)n2c1 [AZD-6482],% of control,[1],100%
CCN(CC)CCCCNc1ncc2cc(-c3cc(OC)cc(OC)c3)c(NC(=O)NC(C)(C)C)nc2n1,% of control,[2],100%
Nc1cnc(N2CCc3cc(S(=O)(=O)Nc4c(F)cc(Cl)cc4F)cc(N4CCCC4=O)c32)nc1 [TP-020n],% of control,[3],100%
C=CC(=O)Nc1cccc(C(=O)Nc2ccc(Nc3cc(-c4[nH]c(SC)nc4C)ccn3)cc2)c1,% of control,[4]; at 1 µM,23%
same,% of control,[4]; at 5 µM,6%
CCC(=O)N1CCN(c2ccc(-n3c(=O)ccc4cnc5ccc(-c6cnc7ccccc7c6)cc5c43)cc2C(F)(F)F)CC1,% of control,[5],80%
C=CC(=O)Nc1cc(-n2c(=O)ccc3cnc4ccc(-c5ccc(NS(C)(=O)=O)cc5)cc4c32)ccc1C,% of control,[6]; at 1 µM,100%
same,% of control,[6]; at 10 µM,72%
CN(C)CCOc1ccc(-c2nc(-c3ccncc3)c(-c3ccc4c(c3)CC/C4=N\O)[nH]2)cc1,% of control,[7],93%
same,% of control,[8],98%
same,% of control,[9],100%
same,% of control,[10],83%
same,% of control,[11],88%
same,% of control,[12],100%
same,% of control,[13],81%
same,% of control,[14],85%
same,% of control,[15],81%
same,% of control,[16],84%
C=CC(=O)Nc1ccc(C(=O)Nc2[nH]nc3c2CN(C(=O)N[C@H](CN(C)C)c2ccccc2)C3(C)C)cc1,% of engagement,[17],2.4%

# — ChEMBL document CHEMBL5465560, “Selectivity Literature for EUbOPEN Chemogenomic Library” (2024)
